# Data published in the supplement of paper PMC10307832.
# Key:
# Assay in all cases: relative viability (nuclei count vs DMSO), 5 days (fraction); higher = more cells survive
# RAF265 + AZD7762 = compound: Cn1c(Nc2ccc(C(F)(F)F)cc2)nc2cc(Oc3ccnc(-c4ncc(C(F)(F)F)[nH]4)c3)ccc21 [RAF265] + NC(=O)Nc1cc(-c2cccc(F)c2)sc1C(=O)N[C@H]1CCCNC1 [AZD7762] (partner 0.2 µM)
# In short: (§1)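 Dosing by pin tool came one day after lung cancer cell lines were seeded in 1536-well plates, using either one drug or a fixed anchor-drug dose plus five library-drug doses (not always all listed) in √10 steps. After 5 days, nuclei were counted on 4× images. Relative viability is treated-well nuclei count divided by vehicle-well nuclei count, and values are medians of duplicate plates.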
# RAF265 + Vorinostat = compound: Cn1c(Nc2ccc(C(F)(F)F)cc2)nc2cc(Oc3ccnc(-c4ncc(C(F)(F)F)[nH]4)c3)ccc21 [RAF265] + O=C(CCCCCCC(=O)Nc1ccccc1)NO [Vorinostat] (partner 1 µM)
# In short: as §1
# RAF265 + Decitabine = compound: Cn1c(Nc2ccc(C(F)(F)F)cc2)nc2cc(Oc3ccnc(-c4ncc(C(F)(F)F)[nH]4)c3)ccc21 [RAF265] + Nc1ncn([C@H]2C[C@H](O)[C@@H](CO)O2)c(=O)n1 [Decitabine] (partner 2 µM)
# In short: as §1
# Doramapimod + Navitoclax = compound: Cc1ccc(-n2nc(C(C)(C)C)cc2NC(=O)Nc2ccc(OCCN3CCOCC3)c3ccccc23)cc1 [Doramapimod] + CC1(C)CCC(c2ccc(Cl)cc2)=C(CN2CCN(c3ccc(C(=O)NS(=O)(=O)c4ccc(N[C@H](CCN5CCOCC5)CSc5ccccc5)c(S(=O)(=O)C(F)(F)F)c4)cc3)CC2)C1 [Navitoclax] (partner 0.5 µM)
# In short: as §1
Cell Line,relative viability (RAF265 + AZD7762; first compound 0.01 µM),relative viability (RAF265 + AZD7762; first compound 0.03162 µM),relative viability (RAF265 + AZD7762; first compound 0.1 µM),relative viability (RAF265 + AZD7762; first compound 0.3162 µM),relative viability (RAF265 + AZD7762; first compound 1 µM),relative viability (RAF265 + Vorinostat; first compound 0.01 µM),relative viability (RAF265 + Vorinostat; first compound 0.03162 µM),relative viability (RAF265 + Vorinostat; first compound 0.1 µM),relative viability (RAF265 + Vorinostat; first compound 0.3162 µM),relative viability (RAF265 + Vorinostat; first compound 1 µM),relative viability (RAF265 + Decitabine; first compound 0.01 µM),relative viability (RAF265 + Decitabine; first compound 0.03162 µM),relative viability (RAF265 + Decitabine; first compound 0.1 µM),relative viability (RAF265 + Decitabine; first compound 0.3162 µM),relative viability (RAF265 + Decitabine; first compound 1 µM),relative viability (Doramapimod + Navitoclax; first compound 0.02 µM),relative viability (Doramapimod + Navitoclax; first compound 0.06325 µM),relative viability (Doramapimod + Navitoclax; first compound 0.2 µM),relative viability (Doramapimod + Navitoclax; first compound 0.6325 µM),relative viability (Doramapimod + Navitoclax; first compound 2 µM)
NCI-H647,0.578,0.452,0.404,0.332,0.262,0.627,0.411,0.585,0.397,0.356,0.394,0.33,0.357,0.266,0.262,1.09,1.13,1.12,1.09,1.12
EKVX,0.685,0.777,0.706,0.412,0.298,0.775,0.659,0.87,–,0.581,0.404,0.318,0.39,0.201,0.281,0.677,0.915,0.936,0.895,0.934
NCI-H460,0.586,0.666,0.775,0.598,0.38,0.756,0.692,0.671,0.668,0.642,0.505,0.458,0.567,0.499,0.48,1.12,1.01,1.14,1.13,1.01
LCLC-97TM1,0.203,0.323,0.259,0.167,0.0766,0.719,0.508,0.544,0.525,0.421,0.248,0.203,0.191,0.159,0.122,0.372,0.434,0.525,0.51,0.371
NCI-H1355,0.816,0.668,0.772,0.68,0.515,0.641,0.607,0.578,0.604,0.419,0.387,0.323,0.363,0.326,0.26,0.943,0.947,0.956,0.923,0.867
NCI-H1666,0.935,0.882,0.837,0.854,0.825,1.13,0.923,0.906,0.99,0.854,0.851,0.915,0.71,0.722,0.694,0.991,0.838,1.04,0.918,0.789
EPLC-272H,0.213,0.181,0.223,0.161,0.15,0.503,0.472,0.318,0.22,0.113,0.409,0.34,0.371,0.243,0.231,1.14,0.943,1.12,1.23,0.978
ChaGo-K-1,0.708,0.877,0.812,0.767,0.709,0.783,0.826,0.727,0.635,0.578,0.584,0.546,0.512,0.516,0.437,1.07,1.25,1.24,–,1.01
NCI-H1651,0.508,0.497,0.401,0.406,0.365,0.61,0.637,0.521,0.591,0.453,0.675,0.632,0.424,0.589,0.54,0.624,0.911,0.996,1.04,1.06
HCC-44,1,0.985,1.03,1,0.955,1.02,1.07,1.19,1.08,1.06,0.945,0.951,0.95,0.967,0.947,1,0.986,0.986,1.14,0.979
PC-3 [JPC-3],0.879,0.771,0.742,0.445,0.479,0.942,0.78,1.08,0.455,0.487,0.924,0.785,0.831,0.488,0.655,0.923,0.767,0.737,0.869,0.723
LOU-NH91,0.756,0.71,0.687,0.631,0.551,1,0.807,0.926,0.755,0.712,0.828,0.745,0.763,0.685,0.685,0.683,0.588,0.627,0.63,0.452
PC-14,0.424,0.451,0.369,–,0.378,0.743,0.642,0.632,–,0.619,0.24,0.204,0.231,0.163,0.226,1.02,1.02,0.935,1.09,0.799
NCI-H2087,1.19,1.18,1.02,1.2,1.12,0.634,0.359,0.757,0.864,0.719,0.287,0.257,0.251,0.188,0.147,0.955,0.98,0.933,1.1,0.888
LU99A,0.419,0.344,0.404,0.325,0.235,0.515,0.447,0.402,0.286,0.261,0.814,0.842,0.652,0.477,0.302,0.662,0.645,0.818,0.977,0.798
BEN,0.675,0.805,0.837,0.674,0.661,0.569,0.586,0.6,0.662,0.544,0.835,0.722,0.769,0.737,0.655,0.0531,0.0454,0.0875,0.0584,0.0743
